{"source": "patent US9492471B2", "about": "“Methods of treating a disease or disorder associated with Bruton'S Tyrosine Kinase” (Celgene Avilomics Research, Inc., priority 2013, dated 2016)", "test_in_all_cases": "HotSpot kinase profiling", "format_in_all_cases": "biochemical", "key": {"DYRK2": {"biological_target": "T1, DYRK2 (Homo sapiens, UniProt Q92630)", "T1 construct": "purchased Reaction Biology Corp", "T1 sequence (Q92630 1-601)": "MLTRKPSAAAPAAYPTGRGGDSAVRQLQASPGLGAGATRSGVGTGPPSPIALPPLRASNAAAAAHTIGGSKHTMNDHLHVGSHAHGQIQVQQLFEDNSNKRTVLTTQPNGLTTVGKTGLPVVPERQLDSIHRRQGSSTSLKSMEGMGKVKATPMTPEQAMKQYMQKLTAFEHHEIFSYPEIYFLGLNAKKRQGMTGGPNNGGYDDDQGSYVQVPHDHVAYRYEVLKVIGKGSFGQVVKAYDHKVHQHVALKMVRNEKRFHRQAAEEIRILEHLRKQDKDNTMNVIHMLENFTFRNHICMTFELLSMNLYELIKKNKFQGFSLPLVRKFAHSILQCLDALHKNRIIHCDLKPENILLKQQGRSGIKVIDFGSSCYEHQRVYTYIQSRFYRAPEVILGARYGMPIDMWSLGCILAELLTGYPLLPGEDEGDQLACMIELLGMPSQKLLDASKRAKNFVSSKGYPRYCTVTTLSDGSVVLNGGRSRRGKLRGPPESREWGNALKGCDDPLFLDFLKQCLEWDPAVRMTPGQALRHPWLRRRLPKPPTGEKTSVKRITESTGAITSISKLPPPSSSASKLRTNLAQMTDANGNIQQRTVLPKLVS", "method_in_brief": "(§1)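 Radio-isotope P81 filtration format. Substrate + required cofactors in reaction buffer, kinase added, 2 h RT. Stop, wash with 0.1% phosphoric acid, detect. % inhibition vs DMSO; mean of duplicates where repeated.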"}, "IGF1R": {"biological_target": "T2, IGF1R (Homo sapiens, UniProt P08069)", "T2 construct": "purchased Reaction Biology Corp", "T2 sequence (P08069 31-1367)": "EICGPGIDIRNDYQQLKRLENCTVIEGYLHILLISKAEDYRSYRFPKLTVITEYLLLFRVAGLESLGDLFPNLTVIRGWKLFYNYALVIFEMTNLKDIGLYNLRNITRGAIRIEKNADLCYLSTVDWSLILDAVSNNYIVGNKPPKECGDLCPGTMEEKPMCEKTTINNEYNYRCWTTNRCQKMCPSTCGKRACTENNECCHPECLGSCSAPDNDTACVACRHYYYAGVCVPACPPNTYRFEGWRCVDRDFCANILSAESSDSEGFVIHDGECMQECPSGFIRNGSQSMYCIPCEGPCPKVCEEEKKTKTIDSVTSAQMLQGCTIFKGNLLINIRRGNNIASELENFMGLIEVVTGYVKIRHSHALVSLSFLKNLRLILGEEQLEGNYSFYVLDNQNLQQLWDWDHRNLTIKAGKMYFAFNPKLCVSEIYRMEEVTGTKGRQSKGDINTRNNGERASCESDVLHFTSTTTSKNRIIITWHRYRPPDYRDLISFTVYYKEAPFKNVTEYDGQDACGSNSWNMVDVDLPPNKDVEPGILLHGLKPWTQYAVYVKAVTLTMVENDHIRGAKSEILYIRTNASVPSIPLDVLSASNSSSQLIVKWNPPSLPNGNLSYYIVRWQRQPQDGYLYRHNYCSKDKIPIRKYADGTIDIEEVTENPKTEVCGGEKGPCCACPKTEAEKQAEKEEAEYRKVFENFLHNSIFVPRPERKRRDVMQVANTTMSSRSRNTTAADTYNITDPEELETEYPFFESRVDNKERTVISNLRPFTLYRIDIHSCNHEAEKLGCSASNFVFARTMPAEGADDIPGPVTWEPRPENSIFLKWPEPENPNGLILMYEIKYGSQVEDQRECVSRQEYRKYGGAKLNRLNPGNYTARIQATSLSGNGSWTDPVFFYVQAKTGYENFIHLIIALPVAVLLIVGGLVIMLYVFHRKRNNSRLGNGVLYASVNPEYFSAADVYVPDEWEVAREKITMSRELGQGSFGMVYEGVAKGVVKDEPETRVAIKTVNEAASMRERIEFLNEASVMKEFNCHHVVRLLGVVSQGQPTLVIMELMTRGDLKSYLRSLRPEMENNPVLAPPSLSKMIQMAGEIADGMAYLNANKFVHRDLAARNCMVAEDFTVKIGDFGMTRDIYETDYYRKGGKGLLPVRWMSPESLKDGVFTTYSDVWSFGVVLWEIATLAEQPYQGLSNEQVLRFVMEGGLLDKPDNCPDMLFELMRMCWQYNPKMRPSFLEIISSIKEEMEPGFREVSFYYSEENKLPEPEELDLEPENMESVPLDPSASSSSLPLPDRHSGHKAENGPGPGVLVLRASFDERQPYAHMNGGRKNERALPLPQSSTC", "method_in_brief": "as §1"}, "IRAK1": {"biological_target": "T3, IRAK1 (Homo sapiens, UniProt P51617)", "T3 construct": "purchased Reaction Biology Corp", "T3 sequence (P51617 whole entry)": "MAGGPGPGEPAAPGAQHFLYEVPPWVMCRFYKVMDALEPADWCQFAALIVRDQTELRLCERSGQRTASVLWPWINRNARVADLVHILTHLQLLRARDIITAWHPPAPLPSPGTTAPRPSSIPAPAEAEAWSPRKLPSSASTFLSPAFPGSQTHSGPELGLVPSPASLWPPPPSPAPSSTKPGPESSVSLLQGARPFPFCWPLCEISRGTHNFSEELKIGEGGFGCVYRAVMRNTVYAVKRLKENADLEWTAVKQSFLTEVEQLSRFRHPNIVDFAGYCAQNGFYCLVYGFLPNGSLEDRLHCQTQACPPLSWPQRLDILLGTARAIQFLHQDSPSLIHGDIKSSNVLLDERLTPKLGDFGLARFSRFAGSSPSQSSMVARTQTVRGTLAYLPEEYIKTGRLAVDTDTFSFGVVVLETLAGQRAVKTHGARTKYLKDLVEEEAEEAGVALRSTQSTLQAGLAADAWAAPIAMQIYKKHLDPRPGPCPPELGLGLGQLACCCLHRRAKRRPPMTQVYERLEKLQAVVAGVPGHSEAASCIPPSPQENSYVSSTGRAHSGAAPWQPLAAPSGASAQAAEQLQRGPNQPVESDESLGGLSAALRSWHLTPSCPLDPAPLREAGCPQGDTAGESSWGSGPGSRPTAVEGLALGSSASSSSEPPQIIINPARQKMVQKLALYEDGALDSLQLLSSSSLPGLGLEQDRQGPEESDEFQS", "method_in_brief": "as §1"}, "MLK1/MAP3K9": {"biological_target": "T4, MLK1/MAP3K9 (Homo sapiens, UniProt P80192)", "T4 construct": "purchased Reaction Biology Corp", "T4 sequence (P80192 whole entry)": "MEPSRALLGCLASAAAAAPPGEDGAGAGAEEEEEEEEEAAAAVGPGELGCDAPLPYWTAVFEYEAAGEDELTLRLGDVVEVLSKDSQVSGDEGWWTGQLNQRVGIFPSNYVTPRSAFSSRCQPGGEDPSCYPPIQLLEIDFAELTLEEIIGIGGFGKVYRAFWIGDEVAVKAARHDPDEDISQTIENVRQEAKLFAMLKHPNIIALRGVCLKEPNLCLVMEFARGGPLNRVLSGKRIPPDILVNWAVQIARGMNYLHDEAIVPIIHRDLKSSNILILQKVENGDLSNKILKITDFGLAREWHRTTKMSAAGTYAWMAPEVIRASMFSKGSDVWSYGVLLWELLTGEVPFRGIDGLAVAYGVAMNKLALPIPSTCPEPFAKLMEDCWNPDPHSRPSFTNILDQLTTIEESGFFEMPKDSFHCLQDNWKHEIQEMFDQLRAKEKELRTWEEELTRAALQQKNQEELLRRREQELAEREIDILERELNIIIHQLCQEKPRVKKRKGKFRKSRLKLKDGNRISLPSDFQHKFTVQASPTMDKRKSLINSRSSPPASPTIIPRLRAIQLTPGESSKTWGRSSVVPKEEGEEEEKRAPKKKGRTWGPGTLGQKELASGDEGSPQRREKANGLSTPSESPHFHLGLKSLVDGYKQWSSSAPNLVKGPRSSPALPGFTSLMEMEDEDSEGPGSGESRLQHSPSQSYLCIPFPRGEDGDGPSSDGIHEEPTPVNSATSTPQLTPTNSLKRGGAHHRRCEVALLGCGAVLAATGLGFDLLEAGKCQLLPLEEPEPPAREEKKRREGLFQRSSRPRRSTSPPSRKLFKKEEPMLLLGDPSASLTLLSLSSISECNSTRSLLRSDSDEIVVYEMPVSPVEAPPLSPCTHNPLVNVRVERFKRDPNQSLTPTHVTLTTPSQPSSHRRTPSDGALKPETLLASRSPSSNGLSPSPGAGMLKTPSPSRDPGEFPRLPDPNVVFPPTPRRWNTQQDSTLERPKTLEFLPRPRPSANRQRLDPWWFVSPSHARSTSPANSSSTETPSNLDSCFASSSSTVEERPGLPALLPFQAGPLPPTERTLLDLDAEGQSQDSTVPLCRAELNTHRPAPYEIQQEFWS", "method_in_brief": "as §1"}, "NEK3": {"biological_target": "T5, NEK3 (Homo sapiens, UniProt P51956)", "T5 construct": "purchased Reaction Biology Corp", "T5 sequence (P51956 1-506)": "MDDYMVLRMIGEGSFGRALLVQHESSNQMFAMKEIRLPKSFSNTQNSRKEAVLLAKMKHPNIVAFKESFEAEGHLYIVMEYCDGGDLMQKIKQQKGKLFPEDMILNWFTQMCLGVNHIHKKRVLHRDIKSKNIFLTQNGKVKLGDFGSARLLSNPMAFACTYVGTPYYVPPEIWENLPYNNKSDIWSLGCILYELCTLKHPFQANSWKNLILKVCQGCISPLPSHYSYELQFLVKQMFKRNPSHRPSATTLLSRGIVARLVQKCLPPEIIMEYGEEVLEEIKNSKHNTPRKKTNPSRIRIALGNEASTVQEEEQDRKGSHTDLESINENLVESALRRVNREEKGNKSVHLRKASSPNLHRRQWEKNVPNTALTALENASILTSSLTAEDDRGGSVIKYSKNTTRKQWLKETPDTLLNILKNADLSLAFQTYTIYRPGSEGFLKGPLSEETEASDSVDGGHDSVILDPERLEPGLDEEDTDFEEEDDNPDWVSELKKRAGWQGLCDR", "method_in_brief": "as §1"}, "P38b/MAPK11": {"biological_target": "T6, P38b/MAPK11 (Homo sapiens, UniProt Q15759)", "T6 construct": "purchased Reaction Biology Corp", "T6 sequence (Q15759 whole entry)": "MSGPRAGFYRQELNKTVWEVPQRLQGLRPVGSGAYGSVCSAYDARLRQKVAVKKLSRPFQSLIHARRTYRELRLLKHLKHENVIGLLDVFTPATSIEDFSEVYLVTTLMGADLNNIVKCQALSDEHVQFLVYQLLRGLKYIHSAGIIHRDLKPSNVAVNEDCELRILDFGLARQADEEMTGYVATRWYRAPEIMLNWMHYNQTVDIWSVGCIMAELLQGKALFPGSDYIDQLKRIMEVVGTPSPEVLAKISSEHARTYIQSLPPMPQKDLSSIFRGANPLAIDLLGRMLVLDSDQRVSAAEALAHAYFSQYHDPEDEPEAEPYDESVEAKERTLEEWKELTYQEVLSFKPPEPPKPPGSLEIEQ", "method_in_brief": "as §1"}, "PBK/TOPK": {"biological_target": "T7, PBK/TOPK (Homo sapiens, UniProt Q96KB5)", "T7 construct": "purchased Reaction Biology Corp", "T7 sequence (Q96KB5 1-322)": "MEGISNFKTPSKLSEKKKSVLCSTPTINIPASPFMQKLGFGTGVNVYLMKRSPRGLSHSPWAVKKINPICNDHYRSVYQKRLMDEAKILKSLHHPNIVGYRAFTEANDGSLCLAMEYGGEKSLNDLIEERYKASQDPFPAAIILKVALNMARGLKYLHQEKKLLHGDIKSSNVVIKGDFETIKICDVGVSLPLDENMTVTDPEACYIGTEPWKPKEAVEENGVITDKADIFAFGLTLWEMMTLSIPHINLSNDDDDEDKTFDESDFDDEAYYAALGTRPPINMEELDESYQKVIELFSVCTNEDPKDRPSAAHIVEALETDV", "method_in_brief": "as §1"}, "SRPK1": {"biological_target": "T8, SRPK1 (Homo sapiens, UniProt Q96SB4)", "T8 construct": "purchased Reaction Biology Corp", "T8 sequence (Q96SB4 whole entry)": "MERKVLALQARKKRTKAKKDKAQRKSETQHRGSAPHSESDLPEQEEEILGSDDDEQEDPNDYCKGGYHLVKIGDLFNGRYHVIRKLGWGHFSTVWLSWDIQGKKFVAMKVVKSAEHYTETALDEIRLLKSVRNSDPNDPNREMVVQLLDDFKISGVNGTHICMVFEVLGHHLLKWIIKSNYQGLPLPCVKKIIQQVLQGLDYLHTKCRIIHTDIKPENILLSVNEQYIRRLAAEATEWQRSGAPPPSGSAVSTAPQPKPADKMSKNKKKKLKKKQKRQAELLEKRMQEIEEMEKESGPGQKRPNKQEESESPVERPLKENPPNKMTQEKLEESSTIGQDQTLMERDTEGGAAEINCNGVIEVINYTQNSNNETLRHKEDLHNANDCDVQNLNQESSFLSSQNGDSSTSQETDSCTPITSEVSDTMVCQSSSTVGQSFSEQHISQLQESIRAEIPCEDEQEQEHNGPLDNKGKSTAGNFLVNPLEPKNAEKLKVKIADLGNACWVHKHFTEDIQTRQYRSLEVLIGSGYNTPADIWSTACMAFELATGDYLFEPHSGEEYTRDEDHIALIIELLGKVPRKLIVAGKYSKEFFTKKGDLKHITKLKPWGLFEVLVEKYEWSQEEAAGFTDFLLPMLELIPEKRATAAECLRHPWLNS", "method_in_brief": "as §1"}, "[1]": {"details": "read-out: % Enzyme Activity (relative to DMSO controls) Run 1"}, "[2]": {"details": "read-out: % Enzyme Activity (relative to DMSO controls) Run 2"}}, "note": "Where two headings read alike, the source gives them in different places."}
{"smiles": "C=CC(=O)Nc1cccc(Nc2nc(Nc3ccc(OCCOC)c(F)c3)ncc2F)c1", "note": "[Compound 2]", "values": [{"measurement": "inhibition at 3 µM", "setting": "DYRK2", "result": 38.5, "unit": "%"}, {"measurement": "remaining activity at 3 µM", "setting": "DYRK2; [1]", "result": 61, "unit": "%"}, {"measurement": "remaining activity at 3 µM", "setting": "DYRK2; [2]", "result": 62.1, "unit": "%"}, {"measurement": "inhibition at 3 µM", "setting": "IGF1R", "result": 15.6, "unit": "%"}, {"measurement": "remaining activity at 3 µM", "setting": "IGF1R; [1]", "result": 82.8, "unit": "%"}, {"measurement": "remaining activity at 3 µM", "setting": "IGF1R; [2]", "result": 86, "unit": "%"}, {"measurement": "inhibition at 3 µM", "setting": "IRAK1", "result": 24.6, "unit": "%"}, {"measurement": "remaining activity at 3 µM", "setting": "IRAK1; [1]", "result": 76.5, "unit": "%"}, {"measurement": "remaining activity at 3 µM", "setting": "IRAK1; [2]", "result": 74.4, "unit": "%"}, {"measurement": "inhibition at 3 µM", "setting": "MLK1/MAP3K9", "result": 85.7, "unit": "%"}, {"measurement": "remaining activity at 3 µM", "setting": "MLK1/MAP3K9; [1]", "result": 14.5, "unit": "%"}, {"measurement": "remaining activity at 3 µM", "setting": "MLK1/MAP3K9; [2]", "result": 14.1, "unit": "%"}, {"measurement": "inhibition at 3 µM", "setting": "NEK3", "result": 24.1, "unit": "%"}, {"measurement": "remaining activity at 3 µM", "setting": "NEK3; [1]", "result": 76.7, "unit": "%"}, {"measurement": "remaining activity at 3 µM", "setting": "NEK3; [2]", "result": 75.1, "unit": "%"}, {"measurement": "inhibition at 3 µM", "setting": "P38b/MAPK11", "result": -1.41, "unit": "%"}, {"measurement": "remaining activity at 3 µM", "setting": "P38b/MAPK11; [1]", "result": 102, "unit": "%"}, {"measurement": "remaining activity at 3 µM", "setting": "P38b/MAPK11; [2]", "result": 101, "unit": "%"}, {"measurement": "inhibition at 3 µM", "setting": "PBK/TOPK", "result": 3.07, "unit": "%"}, {"measurement": "remaining activity at 3 µM", "setting": "PBK/TOPK; [1]", "result": 98.6, "unit": "%"}, {"measurement": "remaining activity at 3 µM", "setting": "PBK/TOPK; [2]", "result": 95.3, "unit": "%"}, {"measurement": "inhibition at 3 µM", "setting": "SRPK1", "result": 2.23, "unit": "%"}, {"measurement": "remaining activity at 3 µM", "setting": "SRPK1; [1]", "result": 98.8, "unit": "%"}, {"measurement": "remaining activity at 3 µM", "setting": "SRPK1; [2]", "result": 96.7, "unit": "%"}]}
